Reference: ChEMBL document CHEMBL5291721, “A preclinical secondary pharmacology resource illuminates target-adverse drug reaction associations of marketed drugs” (Nat Commun, 2023)

Legend:
[1] = target: T1, 5-hydroxytryptamine receptor 2C (Homo sapiens, UniProt P28335)
T1 sequence (P28335 whole entry): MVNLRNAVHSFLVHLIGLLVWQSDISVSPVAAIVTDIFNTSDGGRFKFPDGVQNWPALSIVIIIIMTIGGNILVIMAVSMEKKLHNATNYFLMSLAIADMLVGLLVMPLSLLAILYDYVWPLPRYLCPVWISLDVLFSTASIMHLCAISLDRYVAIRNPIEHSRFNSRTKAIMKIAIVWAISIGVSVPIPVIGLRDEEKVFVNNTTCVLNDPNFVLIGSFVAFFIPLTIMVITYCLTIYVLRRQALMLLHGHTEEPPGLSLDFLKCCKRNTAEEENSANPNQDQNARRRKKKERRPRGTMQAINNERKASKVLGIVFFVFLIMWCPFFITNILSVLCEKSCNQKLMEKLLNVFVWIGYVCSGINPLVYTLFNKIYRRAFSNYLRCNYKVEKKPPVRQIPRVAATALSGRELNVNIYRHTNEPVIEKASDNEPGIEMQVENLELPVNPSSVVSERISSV

[2] = target: Delta-type opioid receptor (Homo sapiens, UniProt P41143)
Chain of Delta-type opioid receptor (P41143 whole entry): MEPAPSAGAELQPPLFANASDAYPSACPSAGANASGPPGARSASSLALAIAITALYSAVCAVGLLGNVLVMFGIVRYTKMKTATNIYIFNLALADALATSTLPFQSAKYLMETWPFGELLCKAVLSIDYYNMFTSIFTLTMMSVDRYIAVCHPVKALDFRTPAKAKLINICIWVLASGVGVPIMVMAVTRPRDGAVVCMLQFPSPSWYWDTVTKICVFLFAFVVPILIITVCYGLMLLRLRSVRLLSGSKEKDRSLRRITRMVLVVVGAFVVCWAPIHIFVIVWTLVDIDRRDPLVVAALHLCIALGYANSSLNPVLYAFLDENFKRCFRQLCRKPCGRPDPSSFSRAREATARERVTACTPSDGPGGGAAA

[3] = target: Voltage-dependent L-type calcium channel subunit alpha-1C (Rattus norvegicus, UniProt P22002); type: functional
Chain of Voltage-dependent L-type calcium channel subunit alpha-1C (P22002 whole entry): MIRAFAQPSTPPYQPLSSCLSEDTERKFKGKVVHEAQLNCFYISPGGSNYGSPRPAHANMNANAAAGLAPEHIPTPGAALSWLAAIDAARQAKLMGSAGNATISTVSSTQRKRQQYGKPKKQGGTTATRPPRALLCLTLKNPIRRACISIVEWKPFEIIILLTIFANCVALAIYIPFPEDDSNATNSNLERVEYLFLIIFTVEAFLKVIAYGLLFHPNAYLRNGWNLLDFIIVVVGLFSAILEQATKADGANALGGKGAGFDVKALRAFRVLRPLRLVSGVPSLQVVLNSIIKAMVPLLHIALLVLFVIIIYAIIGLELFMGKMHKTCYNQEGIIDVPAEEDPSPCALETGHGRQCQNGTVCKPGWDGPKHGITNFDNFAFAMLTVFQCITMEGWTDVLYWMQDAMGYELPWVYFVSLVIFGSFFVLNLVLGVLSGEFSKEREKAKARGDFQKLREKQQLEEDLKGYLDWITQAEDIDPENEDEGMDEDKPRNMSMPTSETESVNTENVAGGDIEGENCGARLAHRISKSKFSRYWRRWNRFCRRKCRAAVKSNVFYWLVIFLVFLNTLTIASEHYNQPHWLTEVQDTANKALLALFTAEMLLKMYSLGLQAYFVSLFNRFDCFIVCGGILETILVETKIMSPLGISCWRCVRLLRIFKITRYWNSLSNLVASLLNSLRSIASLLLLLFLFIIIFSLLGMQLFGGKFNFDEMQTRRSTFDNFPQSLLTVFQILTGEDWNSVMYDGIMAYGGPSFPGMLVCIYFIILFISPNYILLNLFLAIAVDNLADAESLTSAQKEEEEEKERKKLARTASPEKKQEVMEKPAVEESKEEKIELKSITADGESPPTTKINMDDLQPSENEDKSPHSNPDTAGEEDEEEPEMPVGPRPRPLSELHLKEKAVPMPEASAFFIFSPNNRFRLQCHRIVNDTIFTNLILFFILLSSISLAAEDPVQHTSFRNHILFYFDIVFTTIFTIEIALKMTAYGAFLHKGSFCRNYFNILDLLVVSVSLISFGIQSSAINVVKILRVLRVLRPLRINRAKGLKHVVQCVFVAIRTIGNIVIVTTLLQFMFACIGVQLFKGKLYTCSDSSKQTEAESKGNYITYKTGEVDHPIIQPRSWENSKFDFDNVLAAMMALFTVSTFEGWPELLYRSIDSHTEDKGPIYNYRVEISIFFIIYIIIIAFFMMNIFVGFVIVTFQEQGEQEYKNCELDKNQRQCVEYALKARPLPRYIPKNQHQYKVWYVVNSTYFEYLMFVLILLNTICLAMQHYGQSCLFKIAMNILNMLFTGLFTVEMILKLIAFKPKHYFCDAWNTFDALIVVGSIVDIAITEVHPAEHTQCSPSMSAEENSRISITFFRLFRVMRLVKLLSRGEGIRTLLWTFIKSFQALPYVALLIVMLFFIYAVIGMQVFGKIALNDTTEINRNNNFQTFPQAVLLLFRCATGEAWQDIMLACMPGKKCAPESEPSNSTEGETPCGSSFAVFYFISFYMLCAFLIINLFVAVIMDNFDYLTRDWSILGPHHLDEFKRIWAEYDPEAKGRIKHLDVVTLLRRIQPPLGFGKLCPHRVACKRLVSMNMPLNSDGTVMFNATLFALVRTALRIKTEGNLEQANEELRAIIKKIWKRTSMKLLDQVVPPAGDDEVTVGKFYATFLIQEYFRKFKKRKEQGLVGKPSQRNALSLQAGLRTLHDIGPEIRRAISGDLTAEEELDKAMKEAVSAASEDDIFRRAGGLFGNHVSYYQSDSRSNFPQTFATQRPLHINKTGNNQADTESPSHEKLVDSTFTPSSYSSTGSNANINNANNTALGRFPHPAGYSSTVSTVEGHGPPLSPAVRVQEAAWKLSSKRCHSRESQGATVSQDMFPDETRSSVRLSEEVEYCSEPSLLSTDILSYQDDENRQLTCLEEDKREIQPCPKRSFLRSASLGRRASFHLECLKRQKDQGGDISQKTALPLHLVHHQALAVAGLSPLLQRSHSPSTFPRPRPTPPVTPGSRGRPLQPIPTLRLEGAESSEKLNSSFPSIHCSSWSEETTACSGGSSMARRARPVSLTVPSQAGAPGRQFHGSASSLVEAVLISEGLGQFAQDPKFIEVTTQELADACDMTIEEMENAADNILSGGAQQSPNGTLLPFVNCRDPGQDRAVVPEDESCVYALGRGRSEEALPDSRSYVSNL

Estrogen receptor = target: T2, Estrogen receptor (Homo sapiens, UniProt P03372)
T2 sequence (P03372 whole entry): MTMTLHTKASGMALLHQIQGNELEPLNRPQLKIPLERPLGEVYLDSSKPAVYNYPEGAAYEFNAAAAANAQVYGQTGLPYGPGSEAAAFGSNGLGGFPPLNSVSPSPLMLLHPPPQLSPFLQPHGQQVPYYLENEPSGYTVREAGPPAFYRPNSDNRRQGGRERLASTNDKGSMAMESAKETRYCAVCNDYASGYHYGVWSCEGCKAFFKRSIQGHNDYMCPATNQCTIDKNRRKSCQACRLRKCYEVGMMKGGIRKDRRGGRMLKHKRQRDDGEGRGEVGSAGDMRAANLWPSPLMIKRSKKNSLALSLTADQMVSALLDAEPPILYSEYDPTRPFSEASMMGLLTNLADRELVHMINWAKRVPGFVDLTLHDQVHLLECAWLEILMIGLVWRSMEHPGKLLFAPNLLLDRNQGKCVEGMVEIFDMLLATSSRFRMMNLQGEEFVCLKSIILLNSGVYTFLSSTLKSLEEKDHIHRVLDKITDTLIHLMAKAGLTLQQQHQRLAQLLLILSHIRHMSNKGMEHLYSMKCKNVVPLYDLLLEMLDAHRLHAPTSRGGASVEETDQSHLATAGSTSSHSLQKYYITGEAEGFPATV

[4] = target: T3, Type-1 angiotensin II receptor (Homo sapiens, UniProt P30556)
T3 sequence (P30556 whole entry): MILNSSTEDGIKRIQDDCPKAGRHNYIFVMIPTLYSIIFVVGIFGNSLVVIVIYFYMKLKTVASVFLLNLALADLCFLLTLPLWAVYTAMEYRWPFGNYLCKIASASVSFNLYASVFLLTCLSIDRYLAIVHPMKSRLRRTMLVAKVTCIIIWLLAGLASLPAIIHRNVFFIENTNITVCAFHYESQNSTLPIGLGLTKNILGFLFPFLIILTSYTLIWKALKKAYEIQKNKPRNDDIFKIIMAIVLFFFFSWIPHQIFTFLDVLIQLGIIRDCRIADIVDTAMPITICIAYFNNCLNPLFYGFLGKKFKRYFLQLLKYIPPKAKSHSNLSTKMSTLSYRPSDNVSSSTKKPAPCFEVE

[5] = target: T4, 5-hydroxytryptamine receptor 1A (Homo sapiens, UniProt P08908); type: functional, cell-based
T4 sequence (P08908 whole entry): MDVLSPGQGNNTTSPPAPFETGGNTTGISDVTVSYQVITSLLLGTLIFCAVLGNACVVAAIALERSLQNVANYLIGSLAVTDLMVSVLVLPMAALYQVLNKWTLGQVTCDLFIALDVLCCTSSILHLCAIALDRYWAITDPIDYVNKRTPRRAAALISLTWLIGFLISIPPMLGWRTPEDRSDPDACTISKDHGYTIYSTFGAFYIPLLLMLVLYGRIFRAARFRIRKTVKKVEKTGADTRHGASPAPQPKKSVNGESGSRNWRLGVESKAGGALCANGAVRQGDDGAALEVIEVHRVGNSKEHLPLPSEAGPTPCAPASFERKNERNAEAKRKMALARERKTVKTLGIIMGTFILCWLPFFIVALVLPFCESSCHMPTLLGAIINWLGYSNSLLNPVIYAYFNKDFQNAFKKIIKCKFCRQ

[6] = target: T5, Alpha-2A adrenergic receptor (Homo sapiens, UniProt P08913); type: functional, cell-based
T5 sequence (P08913 whole entry): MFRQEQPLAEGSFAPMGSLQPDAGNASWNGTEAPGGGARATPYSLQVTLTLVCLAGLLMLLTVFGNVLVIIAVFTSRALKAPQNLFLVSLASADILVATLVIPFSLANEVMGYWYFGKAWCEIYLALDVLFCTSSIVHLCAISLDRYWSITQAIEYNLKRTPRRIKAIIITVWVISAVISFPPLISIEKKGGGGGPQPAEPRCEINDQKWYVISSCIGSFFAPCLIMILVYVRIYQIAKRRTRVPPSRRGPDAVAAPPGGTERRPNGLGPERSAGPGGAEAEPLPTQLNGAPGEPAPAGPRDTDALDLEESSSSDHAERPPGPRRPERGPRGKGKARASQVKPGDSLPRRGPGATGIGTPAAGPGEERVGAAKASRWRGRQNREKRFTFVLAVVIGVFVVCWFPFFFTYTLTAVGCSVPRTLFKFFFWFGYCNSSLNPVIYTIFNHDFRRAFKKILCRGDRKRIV

[7] = target: T6, 5-hydroxytryptamine receptor 3A (Homo sapiens, UniProt P46098); type: functional
T6 sequence (P46098 whole entry): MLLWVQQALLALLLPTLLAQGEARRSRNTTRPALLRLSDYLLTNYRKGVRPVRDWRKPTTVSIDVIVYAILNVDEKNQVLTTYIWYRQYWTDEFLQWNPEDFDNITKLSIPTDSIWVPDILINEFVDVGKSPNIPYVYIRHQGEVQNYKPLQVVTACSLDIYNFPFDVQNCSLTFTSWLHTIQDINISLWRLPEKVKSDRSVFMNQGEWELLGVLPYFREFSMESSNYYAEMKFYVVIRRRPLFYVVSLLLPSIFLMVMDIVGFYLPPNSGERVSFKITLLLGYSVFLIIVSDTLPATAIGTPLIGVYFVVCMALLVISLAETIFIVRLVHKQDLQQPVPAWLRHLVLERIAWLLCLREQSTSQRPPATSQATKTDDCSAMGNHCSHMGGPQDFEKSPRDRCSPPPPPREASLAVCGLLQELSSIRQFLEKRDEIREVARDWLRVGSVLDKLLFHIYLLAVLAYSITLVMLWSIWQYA
Note: assay procedure not described here.

Row | SMILES | AC50 [1] [µM] | AC50 [2] [µM] | AC50 [3] [µM] | AC50 (Estrogen receptor) [µM] | AC50 [4] [µM] | AC50 [5] [µM] | AC50 [6] [µM] | AC50 [7] [µM]
1 | CN[C@@H](C)[C@H](O)c1ccccc1 [EPHEDRINE] | > 30 | > 30 | > 10 | > 30 | > 30 | > 10 | > 10 | > 30
2 | NC(CO)C(=O)NNCc1ccc(O)c(O)c1O (configuration not stated) [BENSERAZIDE] | > 30 | 30 | > 10 | 1.72 | > 30 | > 10 | > 10 | > 30
3 | Nc1nc2ccc(OC(F)(F)F)cc2s1 [RILUZOLE] | > 30 | > 30 | – | > 30 | > 30 | > 30 | > 30 | > 30
4 | NC(=O)C[S+]([O-])C(c1ccccc1)c1ccccc1 (configuration not stated) [MODAFINIL] | > 30 | > 10 | > 10 | > 30 | > 30 | > 10 | > 10 | > 10
5 | O=C1CN=C(c2ccccc2)c2cc(Cl)ccc2N1CC(F)(F)F [HALAZEPAM] | – | > 30 | – | > 30 | > 30 | > 30 | > 30 | > 30
6 | C[C@]12CCC(=O)C=C1CC[C@@H]1[C@@H]2CC[C@@]2(C)[C@H]1CC[C@]2(C)O [METHYLTESTOSTERONE] | > 30 | > 30 | > 30 | > 30 | > 30 | > 30 | > 30 | > 30
7 | CC(=O)O[C@@]12CO[C@@H]1C[C@H](O)[C@@]1(C)C(=O)[C@H](O)C3=C(C)[C@@H](OC(=O)[C@H](O)[C@@H](NC(=O)OC(C)(C)C)c4ccccc4)C[C@@](O)([C@@H](OC(=O)c4ccccc4)[C@H]21)C3(C)C [DOCETAXEL ANHYDROUS] | > 30 | > 30 | > 30 | > 30 | > 30 | > 30 | > 30 | > 30
8 | CN1C(=O)CC(=O)N(c2ccccc2)c2cc(Cl)ccc21 [CLOBAZAM] | > 30 | > 30 | > 10 | > 10 | > 10 | > 10 | > 10 | > 10
9 | Cc1cc2c(OCC(CNC(C)(C)C)OC(=O)c3ccccc3)cccc2[nH]1 (configuration not stated) [BOPINDOLOL] | > 30 | > 30 | > 30 | > 30 | > 30 | 0.028 | > 30 | > 30
10 | CCCCCOC(=O)Nc1nc(=O)n([C@@H]2O[C@H](C)[C@@H](O)[C@H]2O)cc1F [CAPECITABINE] | > 30 | > 30 | – | > 30 | > 30 | > 30 | > 30 | > 30
11 | Cc1cc(-c2ccccc2)nnc1NCCN1CCOCC1 [MINAPRINE] | > 30 | > 30 | > 10 | > 30 | > 30 | > 10 | > 10 | > 30
12 | CCCCCCC(C)(C)c1cc(O)c2c(c1)OC(C)(C)C1CCC(=O)CC21 (configuration not stated) [NABILONE] | > 30 | > 30 | – | > 30 | > 30 | > 30 | > 30 | > 30
13 | COc1ccc2cccc(CCNC(C)=O)c2c1 [AGOMELATINE] | – | > 30 | > 10 | > 30 | > 30 | > 10 | > 30 | > 30
14 | C#CC1(OC(N)=O)CCCCC1 [ETHINAMATE] | > 30 | > 30 | > 10 | > 10 | > 30 | > 10 | > 10 | > 30
15 | O=C(CCCCC(=O)Nc1c(I)cc(I)c(C(=O)O)c1I)Nc1c(I)cc(I)c(C(=O)O)c1I [IODIPAMIDE] | > 30 | > 30 | > 10 | > 10 | > 10 | > 10 | > 10 | > 30
16 | CN(C)C(=O)OC1N=C(c2ccccc2)c2cc(Cl)ccc2N(C)C1=O (configuration not stated) [CAMAZEPAM] | > 30 | > 10 | > 10 | > 30 | > 30 | > 10 | > 10 | > 10
17 | CN1C(=O)COc2c(C(=O)NC3CN4CCC3CC4)cc(Cl)cc21 (configuration not stated) [AZASETRON] | > 30 | > 30 | > 30 | > 30 | > 30 | > 30 | > 10 | 0.0162
18 | CC(C)(Oc1ccc(C2CC2(Cl)Cl)cc1)C(=O)O (configuration not stated) [CIPROFIBRATE] | > 30 | > 30 | > 30 | > 30 | > 30 | > 30 | > 30 | > 30
19 | Cc1cccc(C)c1NC(=O)C1CCCCN1C (configuration not stated) [MEPIVACAINE] | > 30 | > 30 | – | > 30 | > 30 | > 30 | > 30 | > 30
20 | O=C(O)Cc1cn(-c2ccccc2)nc1-c1ccc(Cl)cc1 [LONAZOLAC] | > 30 | > 30 | > 30 | > 30 | > 30 | – | > 30 | > 30
